{"source": "patent US9132141B2", "about": "(priority 2012, dated 2015)", "test_system": "non-adapted human Wuhan H3N2 strain", "assay_type": "in vivo", "settings": "cotton rats"}
{"smiles": "CCCCCC/C=C\\CCCCCCCCCC(=O)N[C@H]1[C@H](OC[C@H]2O[C@H](OP(=O)(O)O)[C@H](NC(=O)CC(=O)CCCCCCCCCCC)[C@@H](OCCCCCCCCCC)[C@@H]2O)O[C@H](COC)[C@@H](OP(=O)(O)O)[C@@H]1OCC[C@@H](CCCCCCC)OC", "note": "[eritoran, α-D-Glucopyranose, 3-O-decyl-2-deoxy-6-O-[2-deoxy-3-O-[(3R)-3-methoxydecyl)-6-O-methyl-2-[[(-11Z)-1-oxo-11-octadecenyl)amino]-4-O-phosphono-β-D-glucopyranosyl]-2-[(1,3-dioxotetradecyl)amino]-1-(dihydrogen phosphate)]", "values": [{"measurement": "lung expression of IL-6 and IL-10", "value": "decreased lung expression of IL-6 and IL-10"}]}
